The supplement of paper PMC10307832

What was measured:
Experiment in all cases: relative viability (nuclei count vs DMSO), 5 days (fraction); higher = more cells survive
[1] = compound: CN(C)C(=N)NC(=N)N [Metformin] + O=C(c1cc(Cc2n[nH]c(=O)c3ccccc23)ccc1F)N1CCN(C(=O)C2CC2)CC1 [Olaparib] (partner 8 µM)
Outline: (§1)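 Relative viability is defined as nuclei in treated wells over nuclei in vehicle wells. Duplicate plates were run and medians reported. Lung cancer cell lines in 1536-well plates were dosed by pin tool one day after seeding, with one drug or with a fixed anchor-drug dose plus five library-drug doses (not always all listed) in √10 steps, and nuclei were counted after 5 days.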

[2] = compound: N#CC1(c2ccc(NC(=O)c3cccnc3NCc3ccncc3)cc2)CCCC1 [Apatinib] + Cc1cc(Nc2cc(N3CCN(C)CC3)nc(Sc3ccc(NC(=O)C4CC4)cc3)n2)n[nH]1 [Tozasertib] (partner 0.1 µM)
Outline: as §1

[3] = compound: N#CC1(c2ccc(NC(=O)c3cccnc3NCc3ccncc3)cc2)CCCC1 [Apatinib] + Nc1ncn([C@H]2C[C@H](O)[C@@H](CO)O2)c(=O)n1 [Decitabine] (partner 2 µM)
Outline: as §1

[4] = compound: CN(C)C(=N)NC(=N)N [Metformin] + CS(=O)(=O)CCNCc1ccc(-c2ccc3ncnc(Nc4ccc(OCc5cccc(F)c5)c(Cl)c4)c3c2)o1 [Lapatinib] (partner 2 µM)
Outline: as §1

Cell Line | relative viability ([1]; first compound 10 µM) | relative viability ([1]; first compound 31.62 µM) | relative viability ([1]; first compound 100 µM) | relative viability ([1]; first compound 316.23 µM) | relative viability ([1]; first compound 1000 µM) | relative viability ([2]; first compound 0.08 µM) | relative viability ([2]; first compound 0.253 µM) | relative viability ([2]; first compound 0.8 µM) | relative viability ([2]; first compound 2.53 µM) | relative viability ([2]; first compound 8 µM) | relative viability ([3]; first compound 0.08 µM) | relative viability ([3]; first compound 0.253 µM) | relative viability ([3]; first compound 0.8 µM) | relative viability ([3]; first compound 2.53 µM) | relative viability ([3]; first compound 8 µM) | relative viability ([4]; first compound 31.62 µM) | relative viability ([4]; first compound 100 µM) | relative viability ([4]; first compound 316.23 µM) | relative viability ([4]; first compound 1000 µM) | relative viability ([4]; first compound 10 µM)
HCC-827 | 0.487 | 0.366 | 0.484 | 0.415 | 0.424 | 0.381 | 0.388 | 0.43 | 0.413 | 0.311 | 0.345 | 0.335 | 0.363 | 0.322 | 0.327 | 0.216 | 0.185 | 0.232 | 0.18 | 
HCC-44 |  | 0.893 | 0.822 | 0.947 | 0.929 | 1.23 | 1.12 | 0.75 | 0.844 | 0.494 | 0.963 | 0.929 | 0.887 | 0.95 | 0.89 | 0.976 | 1.03 | 0.939 | 1.03 | 1.05
NCI-H838 | 0.686 | 0.691 | 0.639 | 0.596 | 0.696 | 0.301 | 0.302 | 0.248 | 0.222 | 0.213 | 0.489 | 0.48 | 0.493 | 0.442 | 0.469 | 0.987 | 0.918 | 0.951 | 0.888 | 1.13
NCI-H2126 | 0.767 | 0.88 | 0.911 | 0.833 | 0.856 | 0.953 | 0.861 | 0.797 | 0.709 | 0.607 | 0.589 | 0.637 | 0.666 | 0.566 | 0.547 | 0.774 | 0.771 | 0.787 | 0.749 | 0.678
COR-L23 | 0.256 | 0.3 | 0.336 | 0.231 | 0.254 | 0.263 | 0.165 | 0.149 | 0.143 | 0.129 | 0.514 | 0.509 | 0.452 | 0.427 | 0.413 | 0.969 | 0.734 | 0.773 | 1.07 | 1.21
NCI-H727 | 0.641 | 0.599 | 0.582 |  | 0.577 | 0.676 | 0.631 | 0.545 | 0.559 | 0.488 | 0.89 |  | 0.973 | 0.985 | 0.729 | 0.917 | 0.615 | 0.728 | 0.884 | 0.863
LXF-289 | 0.929 | 0.922 | 0.829 | 0.917 | 0.93 | 0.211 | 0.247 | 0.171 | 0.175 | 0.132 | 0.4 | 0.386 | 0.391 | 0.565 | 0.594 | 0.879 | 0.879 | 0.843 | 0.887 | 0.812
HCC-15 | 0.532 | 0.615 | 0.47 | 0.571 | 0.585 | 0.376 | 0.48 | 0.357 | 0.248 | 0.163 | 0.703 | 0.656 | 0.638 | 0.604 | 0.606 | 0.908 | 0.891 | 0.785 | 0.913 | 0.54
NCI-H2085 | 0.621 | 0.633 | 0.596 | 0.591 | 0.654 | 0.844 | 0.767 | 0.726 | 0.379 | 0.406 | 0.592 | 0.573 | 0.582 | 0.587 | 0.712 | 0.805 | 0.801 | 0.725 | 0.868 | 0.716
NCI-H1650 | 0.687 | 0.625 | 0.763 | 0.682 | 0.59 |  | 0.334 | 0.329 | 0.257 | 0.26 | 0.495 | 0.55 | 0.416 | 0.64 | 0.589 | 0.844 | 0.949 | 0.707 | 0.648 | 0.699
HCC-78 |  | 1.01 | 1.07 | 0.979 | 0.443 | 0.477 | 0.333 | 0.535 | 0.289 | 0.317 | 0.7 | 0.694 | 0.692 | 0.701 | 0.913 | 1.05 | 0.863 | 0.933 | 0.969 | 0.494
LCLC-97TM1 |  | 0.321 | 0.394 | 0.249 | 0.414 | 0.226 | 0.255 | 0.173 | 0.2 | 0.165 | 0.268 | 0.244 | 0.237 | 0.185 | 0.228 | 1.36 | 0.888 | 1.08 | 1.53 | 0.888
NCI-H1651 | 0.151 | 0.159 | 0.144 | 0.16 | 0.146 | 0.753 | 0.756 | 0.717 | 0.34 | 0.362 | 0.609 | 0.53 | 0.611 | 0.593 | 0.41 | 0.81 | 0.822 | 0.749 | 0.865 | 0.877
NCI-H1944 | 0.385 | 0.381 | 0.479 | 0.397 | 0.471 | 0.23 | 0.229 | 0.239 | 0.238 | 0.223 | 0.41 | 0.466 | 0.401 | 0.421 | 0.504 | 0.961 | 0.931 | 0.751 | 0.886 | 0.686
